Data on 31 compounds can be found in patent EP1038880B1, “Androstanes and pregnanes for allosteric modulation of GABA receptor” (priority 1994, dated 1995).

In the experiment the test system is GR complex. The experiment in a line: [35S]TBPS binding assay (inhibition of [35S]TBPS binding, cerebral cortex P2 homogenate). Further details: species or system rat. Conditions: for IMAX: maximum inhibition of [35S]TBPS binding; for IC50: 2 nM [35S]TBPS, rat cerebral cortex P2 homogenate. As to the method: We performed several experiments to determine the nature of the modulation of [^35S]TBPS as affected by the compounds of the invention.
These procedures were performed as follows:
Brains from male Sprague-Dawley rats were removed immediately following sacrifice and the cerebral cortices dissected over ice. […] Briefly, the cortices were gently homogenized in 0.32 M sucrose followed by centrifugation at 1000 x g for 10 minutes. The supernatant was collected and centrifuged at 9000 x g for 20 minutes. The resultant P2 pellet was suspended as a 10% (original wet weight/volume) suspension in 50 mM Na/K phosphate buffer (pH 7.4) 200 mM NaCl to form the homogenate.
One hundred microliter […] aliquots of the P2 homogenate (0.5 milligrams (mg) protein) were incubated with 2 nanomolar (nM) [^35S]TBPS (70-110 curies/millimole; New England Nuclear, Boston, MA) in the presence or absence of the naturally occurring steroids or their synthetic derivatives to be tested. The tested compounds were dissolved in dimethylsulfoxide (Baker Chem. Co., Phillipsbury, NJ) and added to the incubation mixture in 5 µL aliquots. The incubation mixture was brought to a final volume of 1 mL with buffer. Non-specific binding was defined as binding in the presence of […] TBPS. The effect and specificity of GABA (Sigma Chem. Co., St. Louis, MO) was evaluated by performing all assays in the presence of GABA plus (+)bicuculline (Sigma Chem. Co.). maintained at 25°C for 90 minutes (steady state conditions) were terminated by rapid filtration through glass fiber filters (No. 32, Schleicher and Schuell, Keene, NH). Filter-bound radioactivity was quantitated by liquid scintillation spectrophotometry.
Various compounds were screened to determine their potential as modulators of [^35S]TBPS binding in vitro. These assays were performed in accordance with the above discussed procedures. […] It is an indication of a compound's in vitro potency. Maximum inhibition is an indication of a compound's in vitro efficacy.

Where [1] appears, read: listed as 3α-Hydroxy-3β-(3'-hydroxyphenyl)-ethynyl-5β-pregnan-20-one.

`CC(=O)C1CCC2C3CCC4CC(O)(C#CCCO)CCC4(C)C3CCC12C` (stereo not drawn) [3β-(4'-hydroxybutynyl)-3α-hydroxy-5α-pregnan-20-one] gave an IMAX of 95%. Broadly, the IC50 is the point on the concentration scale where inhibition reaches its midpoint. Lower therefore signals higher potency. Regarding `CC(=O)[C@H]1CC[C@H]2[C@@H]3CC[C@@H]4C[C@@](O)(C#Cc5cccnc5)CC[C@]4(C)[C@H]3CC[C@]12C` [3α-Hydroxy-3β-(3-pyridyl)ethynyl-5β-pregnan-20-one], the IC50 was 0.138 µM and the IMAX is 100%. The corresponding values for `COc1ccc(C#CC2(O)CCC3(C)C(CCC4C3CCC3(C)C(C(C)=O)CCC43)C2)cc1` (stereo not drawn) [3β-(4'-methoxyphenylethynyl)-3α-hydroxy-5β-pregnan-20-one] are 0.047 µM and 89%. The corresponding values for `C[C@]12CC[C@H]3[C@@H](CC[C@@H]4C[C@@](O)(C#CCCO)CC[C@@H]43)[C@@H]1CC[C@@H]2C(=O)Cn1ccnc1` [3α-Hydroxy-3β-(4-hydroxybutyn-1-yl)-21-(1-imidazolyl)-5β-19-norpregnan-20-one] are 0.098 µM and 98%. On the same counts, the results for “3β-(4'-Aminophenyl)ethynyl-3β-hydroxy-5β-20-one” are 22.5 µM and 103%. With `C[C@]12C[C@H](O)[C@H]3[C@@H](CCC4=CC(=O)CC[C@@]43C)[C@@H]1CC[C@@H]2C(=O)CO` [4-Pregnen-11β,21-diol-3,20-dione, reference compound], the IC50 is above 1000 µM and the IMAX amounted to 30%. The compound `CC(=O)C1CCC2C3CCC4CC(O)(C#CCCO)CCC4C3CCC12C` (stereo not drawn) [3β-(4'-hydroxy-1'-butynyl)-3α-hydroxy-5β-19-norpregnan-20-one] showed an IC50 of 0.022 µM and an IMAX of 102%. On the same counts, the results for `CC(=O)[C@H]1CC[C@H]2[C@@H]3CC[C@@H]4C[C@@](O)(C#Cc5ccc(C(F)(F)F)cc5)CC[C@]4(C)[C@H]3CC[C@]12C` [3α-hydroxy-3β-(4'-trifluoromethylphenylethynyl)-5β-pregnan-20-one] are 0.052 µM and 87%. Consider `COc1ccc(C#CC2(O)CCC3(C)C(CCC4C3CCC3(C)C(C(C)=O)CCC43)C2)cc1OC` (stereo not drawn) [3β-(3',4'-Dimethoxyphenylethynyl)-3α-hydroxy-5β-pregnan-20-one], for which the IMAX worked out at 106%. `CC(=O)OCCCCC#C[C@@]1(O)CC[C@@]2(C)[C@H](CC[C@@H]3[C@@H]2CC[C@]2(C)[C@@H](C(C)=O)CC[C@@H]32)C1` [3β-(6'Acetoxy-1'-hexynyl)-3α-hydroxy-5β-pregnan-20-one] displayed an IC50 of 0.306 µM and an IMAX of 99%. The corresponding values for `CC(=O)[C@H]1CC[C@H]2[C@@H]3CC[C@@H]4C[C@@](O)(C#Cc5ccc(C(N)=O)cc5)CC[C@]4(C)[C@H]3CC[C@]12C` [3β-(4'-Carboxamidopheny)ethynyl-3α-hydroxy-5β-pregnan-20-one] are 2.24 µM and 98%. On the same counts, the results for `C[C@]12CC[C@](O)(C#CCCO)C[C@H]1CC[C@@H]1[C@@H]2CC[C@]2(C)[C@@H](C(=O)Cn3cnnn3)CC[C@@H]12` [3α-hydroxy-3β-(4-hydroxybutyn-1-yl)-21-(tetrazol-1-yl)-5β-pregnan-20-one] are 0.093 µM and 101%. Compound `CCOC(=O)c1ccc(C#CC2(O)CCC3(C)C(CCC4C3CCC3(C)C(C(C)=O)CCC43)C2)cc1` (stereo not drawn) [3β-(4'-Carboxyphenylethynyl)-3α-hydroxy-5α-pregnan-20-one ethyl ester] yielded an IC50 of 0.007 µM and an IMAX of 79%. Consider `CC(=O)[C@H]1CC[C@H]2[C@@H]3CC[C@@H]4C[C@@](O)(C#Cc5cccc(O)c5)CC[C@]4(C)[C@H]3CC[C@]12C` [3β-(3'-hydroxyphenylethynyl)-3α-hydroxy-5β-pregnan-20-one], for which the IC50 is 0.407 µM and the IMAX worked out at 99%. Under setting [1], this compound returned an IC50 of 0.619 µM and an IMAX of 98%. `CC(=O)[C@H]1CC[C@H]2[C@@H]3CC[C@@H]4C[C@@](O)(C#CCCCC(N)=O)CC[C@]4(C)[C@H]3CC[C@]12C` [3β-(5'-Carboxamidopentynyl)-3α-hydroxy-5β-pregnan-20-one] displayed an IC50 of 3.09 µM and an IMAX of 102%. On the same counts, the results for `CC(=O)[C@H]1CC[C@H]2[C@@H]3CC[C@@H]4C[C@@](O)(C#Cc5ccccc5)CC[C@]4(C)[C@H]3CC[C@]12C` [3α-hydroxy-3β-phenylethynyl-5β-pregnan-20-one] are 0.098 µM and 101%. `C[C@]12CC[C@@H]3c4ccc(O)cc4CC[C@H]3[C@@H]1CC[C@@H]2O` [17β-Estradiol, reference compound]: the IMAX was found to be 0%. `C[C@]12CC[C@@H](O)C[C@H]1CC[C@@H]1[C@@H]2CC[C@]2(C)[C@@H](C(=O)Cn3cncn3)CC[C@@H]12` [3α-Hydroxy-21-(1',2',4'-triazol-1-yl)-5β-pregnan-20-one] had an IMAX of 60%. Compound `CC(=O)[C@H]1CC[C@H]2[C@@H]3CC[C@@H]4C[C@@](O)(C#CCCC(N)=O)CC[C@]4(C)[C@H]3CC[C@]12C` [3β-(4'-Carboxamidobutynyl)-3α-hydroxy-5β-pregnan-20-one] returned an IC50 of 2.34 µM and an IMAX of 102%. On the same counts, the results for `CC(=O)[C@H]1CC[C@H]2[C@@H]3CC[C@@H]4C[C@@](O)(C#CCN(C)C)CC[C@]4(C)[C@H]3CC[C@]12C` [3β-[3'-(N,N-dimethylamino)-1'-propynyl]-3α-hydroxy-5β-pregnan-20-one] are 1.42 µM and 100%. The corresponding values for `C[C@]12CC[C@@H](O)C[C@@H]1CC[C@@H]1[C@@H]2CC[C@]2(C)[C@@H](C(=O)Cn3ccnc3)CC[C@@H]12` [3α-hydroxy-21-(1'-imidazolyl)-5α-pregnan-20-one] are 0.071 µM and 99%. Consider `CC1(O)CCC2(C)C(CCC3C2CCC2(C)C(C(=O)Cn4nccn4)CCC32)C1` (stereo not drawn) [3α-hydroxy-3β-methyl-21(2'H-1',2',3'-triazol-2'-yl)-5α-pregnan-20-one], for which the IC50 was 0.085 µM and the IMAX stood at 99%. As to `CCOC(=O)c1ccc(C#C[C@@]2(O)CC[C@@]3(C)[C@H](CC[C@@H]4[C@@H]3CC[C@]3(C)[C@@H](C(C)=O)CC[C@@H]43)C2)cc1` [3α-hydroxy-3β-(4'-carboxyphenylethynyl)-5β-pregnan-20-one ethyl ester], the IMAX was found to be 98%. In turn, `CC(=O)[C@H]1CC[C@H]2[C@@H]3CC[C@H]4C[C@@H](O)CC[C@]4(C)[C@H]3CC[C@]12C` [3β-Hydroxy-5α-pregnan-20-one, reference compound] had an IC50 above 1000 µM and an IMAX of 33%.

`CC(=O)[C@H]1CC[C@H]2[C@@H]3CC[C@@H]4C[C@@](O)(Cc5ccccc5)CC[C@]4(C)[C@H]3CC[C@]12C` [3β-Benzyl-3α-hydroxy-5β-pregnan-20-one, 3α-hydroxy-3β-benzyl-5β-pregnan-20-one] showed an IC50 of 0.109 µM and an IMAX of 102%.

With `CC(=O)[C@H]1CC[C@H]2[C@@H]3CC[C@@H]4C[C@@](O)(C#Cc5ccc(F)cc5F)CC[C@]4(C)[C@H]3CC[C@]12C` [3β-(2', 4'-difluorophenylethynyl)-3α-hydroxy-5β-pregnan-20-one], the IC50 was found to be 0.109 µM and the IMAX amounted to 102%.

For `CC(=O)Oc1ccc(C#C[C@@]2(O)CC[C@@]3(C)[C@H](CC[C@@H]4[C@@H]3CC[C@]3(C)[C@@H](C(C)=O)CC[C@@H]43)C2)cc1` [3β-(4'-Acetoxyphenylethynyl)-3α-hydroxy-5β-pregnan-20-one], the IC50 came to 1.43 µM and the IMAX is 100%. Regarding `C[C@]12CC[C@@H](O)C[C@H]1CC[C@@H]1[C@@H]2CC[C@]2(C)[C@@H](C(=O)Cn3cnc4cncnc43)CC[C@@H]12` [3α-hydroxy-21-(9'H-purin-9'-yl-5β-pregnan-20-one], the IC50 was found to be 0.069 µM and the IMAX came out at 59%. In the case of `C[C@]12CC[C@H]3[C@@H](CC[C@@H]4C[C@@](O)(C#CCCO)CC[C@@H]43)[C@@H]1CC[C@@H]2C(=O)Cn1ccnn1` [3α-hydroxy-3β-(4-hydroxybutyn-1-yl)-21-(1H-1,2,3-triazol-1-yl)-5β-19-norpregnan-20-one], the IC50 worked out at 0.124 µM and the IMAX was 95%. The compound `C[C@]12CC[C@@H](O)C[C@H]1CC[C@@H]1[C@@H]2CC[C@]2(C)[C@@H](C(=O)Cn3ncnn3)CC[C@@H]12` [3α-Hydroxy-21-(2'H-1,2,3,4-tetrazol-2'-yl)-5β-pregnan-20-one] came in with an IC50 of 0.046 µM and an IMAX of 78%. In turn, `CC(=O)[C@H]1CC[C@H]2[C@@H]3CC[C@@H]4C[C@@](O)(C#Cc5ccc(Cl)cc5)CC[C@]4(C)[C@H]3CC[C@]12C` [3β-(4'-chlorophenylethynyl)-3α-hydroxy-5β-pregnan-20-one] came in with an IC50 of 0.058 µM and an IMAX of 89%.
